Measurements published in article PMC11567856, “A novel peptide‐based tau aggregation inhibitor as a potential therapeutic for Alzheimer's disease and other tauopathies” (Alzheimer's & Dementia, 2024).
Where a SMILES comes first, the peptide text is derived from it.

Tests used:
[1] = ThT fluorescence, self-assembly of peptide inhibitors without Tau; type: physicochemical; conditions: ThT end-point 24 h, 37°C; 20 µM peptide without Tau, 5 µM heparin, 30 mM Tris, 1 mM DTT, 15 µM ThT, pH 7.4; triplicate
Procedure: (§1) Fluorescence was measured (λex = 442 nm, λem = 483 nm), and data were normalized. […] The addition of inhibitor to the growth phase was controlled by adding an equivalent volume of buffer alone.
(§2) Experiments were conducted in triplicate and error bars were reported as standard deviation. Statistical analysis: p > 0.05, *p ≤ 0.05, **p ≤ 0.01, ***p ≤ 0.001.

Tau^Δ1‐250 = biological target: T1, Tau^Δ1‐250 (Homo sapiens, UniProt P10636); test: ThT fluorescence, heparin-induced aggregation of Tau^Δ1‐250; type: biochemical; conditions: 5 µM heparin, pH 7.4, triplicate; for effect on Tau^Δ1‐250 aggregation (in words): ThT end-point 24 h, 20 µM Tau^Δ1‐250, 20 µM peptide
T1 construct: Tau^Δ1‐250 (an aggregate prone truncated version of full‐length Tau); made in house; host or cells: E. coli BL21(DE3)
Procedure: as §1, §2

[2] = system: Tau repeat domain (RD) with the P301S mutation fused to mCer and mClo, HEK293 biosensor cells; test: Tau fibril seeding in FRET Tau biosensor cells; type: cell-based, human; conditions: biosensor cells, fibrils preincubated with 0–500 µM peptide; Figure 5C
Procedure: Tau biosensor cells culture: RD P301S Tau biosensor cells have been previously described,[45] and in this case v2L cells were used. Cells were cultured in 10 cm dishes containing Dulbecco's Modified Eagle's Medium (DMEM) (Gibco) enriched with 10% FBS (HyClone), 1% penicillin/streptomycin (Gibco), and 1% GlutaMAX (Gibco) at 37°C with 5% CO2 in a humidified incubator.
5 µM of tau fibrils (monomer equivalent) were incubated in PBS with peptide RI‐AG03 or scramble (0–500 µM) at 300 rpm agitation at 4°C for 16 h. The reaction was stopped by flash freezing in liquid nitrogen and stored at –20°C. Tau biosensor cells were plated at a density of 30,000 cells in 120 µL of media per well in a 96‐well plate. After 18 h, using Lipofectamine 2000 cells were transduced with 10 nM of treated fibrils that had been briefly sonicated for 30 s at 65 Amp (QSonica). Lipofectamine complexes were formed in 30 µL consisting of 14.17 µL Opti‐MEM (Gibco), 15 µL of treated fibrils diluted in PBS, and 0.83 µL lipofectamine 2000 (Invitrogen), bringing the total volume to 150 µL. […] Aggregates in Tau biosensors (10,000 minimum) were quantified by FRET flow cytometry in a LSRFortessa SORP (BD Biosciences). To detect the cerulean signal, cells were excited with a 405 nm laser, and fluorescence was captured at […]. For clover signal, cells were excited with a 488 nm laser and fluorescence was detected at 525/50 nm. Flow cytometry data were analyzed using a gating strategy previously described.[45], [47] The percentage of cells with positive FRET signal were quantified. Each condition was analyzed in quadruplicate. […]
To test RI‐AG03 efficacy in mammalian cells, we utilized a fluorescence resonance energy transfer (FRET) biosensor HEK293 cell line that stably expresses the Tau repeat domain (RD) with the P301S mutation fused to mCer and mClo. These cells[45] or prior generations[71] have been used extensively to quantify Tau seeding activity and measure intracellular aggregation.[71] […] Seeded aggregation was quantified by the percentage of FRET positivity.

Tau^2N4R = biological target: T2, Tau^2N4R (Homo sapiens, UniProt P10636); test: ThT fluorescence end-point, heparin-induced aggregation of Tau^2N4R; type: biochemical; conditions: ThT end-point 216 h (9 days); Tau^2N4R, 20 µM peptide, 10 µM heparin, pH 7.4
T2 construct: and full‐length Tau (Tau^2N4R); made in house; host or cells: E. coli BL21
Procedure: as §1
FIGURE 3 Lead peptide RI‐AG03 dose‐response and target specificity. […] (C) Concentration‐dependent inhibition of by Tau^Δ1‐250 by RI‐AG03. […] (E) Concentration‐dependent inhibition of by Tau^2N4R by RI‐AG03. […] (F) log10 scatter graph of Tau^2N4R inhibition by RI‐AG03 employing a curve fitting algorithm to calculate the IC50 at 5 µM. Experiments were conducted in triplicate and error bars were reported as standard deviation. One factor repeated measures ANOVA + Tukey post hoc statistical analysis: p > 0.05, *p ≤ 0.05, **p ≤ 0.01, ***p ≤ 0.001.

T1 sequence (P10636 568-758, stated change not applied): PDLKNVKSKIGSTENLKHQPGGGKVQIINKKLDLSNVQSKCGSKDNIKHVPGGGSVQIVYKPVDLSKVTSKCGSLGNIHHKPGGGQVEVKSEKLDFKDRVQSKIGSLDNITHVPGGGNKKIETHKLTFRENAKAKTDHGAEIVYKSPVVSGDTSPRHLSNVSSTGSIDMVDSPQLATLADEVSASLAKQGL
T2 sequence (P10636 1-441 isoform P10636-8): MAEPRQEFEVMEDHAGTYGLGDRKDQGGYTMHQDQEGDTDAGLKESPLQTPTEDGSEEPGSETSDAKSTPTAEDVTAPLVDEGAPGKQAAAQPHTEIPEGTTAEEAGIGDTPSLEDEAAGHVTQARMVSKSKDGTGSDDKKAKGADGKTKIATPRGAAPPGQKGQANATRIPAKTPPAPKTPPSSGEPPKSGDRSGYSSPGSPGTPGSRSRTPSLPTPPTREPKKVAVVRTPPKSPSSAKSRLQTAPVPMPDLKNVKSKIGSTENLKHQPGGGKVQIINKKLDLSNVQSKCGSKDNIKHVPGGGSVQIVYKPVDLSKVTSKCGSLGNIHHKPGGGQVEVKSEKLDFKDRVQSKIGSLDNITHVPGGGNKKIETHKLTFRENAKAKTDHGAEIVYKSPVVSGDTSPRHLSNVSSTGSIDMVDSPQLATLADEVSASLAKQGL

Row | Compound | self-aggregation of peptide (in words) [1] | effect on Tau^Δ1‐250 aggregation (in words) (Tau^Δ1‐250) | further results
1 | CC[C@H](C)[C@H](NC(=O)[C@H](CCC(N)=O)NC(=O)[C@@H](NC(=O)CNC(=O)[C@H](CCCNC(=N)N)NC(C)=O)C(C)C)C(=O)N[C@H](C(=O)N[C@@H](CC(N)=O)C(=O)N[C@@H](CCCCN)C(=O)NCC(=O)N[C@@H](CCCNC(=N)N)C(N)=O)[C@@H](C)CC [AG01] (Ac-RGVQIINKGR-NH2) | self‐aggregated |  | 
2 | CC[C@H](C)[C@H](NC(=O)[C@H](CCC(N)=O)NC(=O)[C@@H](NC(=O)CNC(=O)[C@H](CCCNC(=N)N)NC(C)=O)C(C)C)C(=O)N[C@H](C(=O)N[C@@H](Cc1ccc(O)cc1)C(=O)N[C@@H](CCCCN)C(=O)N1CCC[C@H]1C(=O)NCC(=O)N[C@@H](CCCNC(=N)N)C(=O)N[C@@H](CCCNC(=N)N)C(=O)N[C@@H](CCCNC(=N)N)C(=O)N[C@@H](CCCNC(=N)N)C(N)=O)C(C)C [AG02PR5] (Ac-RGVQIVYKPGRRRR-NH2) |  | no additional benefit | 
3 | CC[C@H](C)[C@H](NC(=O)[C@H](CCC(N)=O)NC(=O)[C@@H](NC(=O)CNC(=O)[C@H](CCCNC(=N)N)NC(C)=O)C(C)C)C(=O)N[C@H](C(=O)N[C@@H](Cc1ccc(O)cc1)C(=O)N[C@@H](CCCCN)C(=O)NCC(=O)N[C@@H](CCCNC(=N)N)C(=O)N[C@@H](Cc1ccc(O)cc1)C(=O)NCC(=O)N[C@@H](CCCNC(=N)N)C(=O)N[C@@H](CCCCN)C(=O)N[C@@H](CCCCN)C(=O)N[C@@H](CCCNC(=N)N)C(=O)N[C@@H](CCCNC(=N)N)C(=O)N[C@@H](CCC(N)=O)C(=O)N[C@@H](CCCNC(=N)N)C(=O)N[C@@H](CCCNC(=N)N)C(=O)N[C@@H](CCCNC(=N)N)C(N)=O)C(C)C [AG02TAT] (Ac-RGVQIVYKGRYGRKKRRQRRR-NH2) | greater self‐association into β‐sheets than all other AG02‐derived peptides | no significant additional inhibitory benefits | 
4 | CC(=O)NCCCC[C@H](NC(=O)[C@H](CCC(N)=O)NC(=O)[C@@H](NC(=O)CNC(=O)[C@H](CCCNC(=N)N)NC(C)=O)C(C)C)C(=O)N[C@H](C(=O)N[C@@H](Cc1ccc(O)cc1)C(=O)N[C@@H](CCCCN)C(=O)NCC(=O)N[C@@H](CCCNC(=N)N)C(N)=O)C(C)C [AG02∆I] (Ac-RGVQK(Ac)VYKGR-NH2) | demonstrated self‐aggregation ability |  | 
5 | CC[C@H](C)[C@H](NC(=O)[C@H](CCC(N)=O)NC(=O)[C@@H](NC(=O)CNC(=O)[C@H](CCCNC(=N)N)NC(C)=O)C(C)C)C(=O)N[C@@H](CCCCNC(C)=O)C(=O)N[C@@H](Cc1ccc(O)cc1)C(=O)N[C@@H](CCCCN)C(=O)NCC(=O)N[C@@H](CCCNC(=N)N)C(N)=O [AG02∆V] (Ac-RGVQIK(Ac)YKGR-NH2) | demonstrated a tendency for self‐aggregation, though to a smaller extent |  | 
6 | CC[C@H](C)[C@H](NC(=O)[C@H](CCC(N)=O)NC(=O)[C@@H](NC(=O)CNC(=O)[C@H](CCCNC(=N)N)NC(C)=O)C(C)C)C(=O)N[C@@H](CCCCNC(C)=O)C(=O)N[C@@H](Cc1ccc(O)cc1)C(=O)N[C@@H](CCCCN)C(=O)N1CCC[C@H]1C(=O)NCC(=O)N[C@@H](CCCNC(=N)N)C(=O)N[C@@H](CCCNC(=N)N)C(=O)N[C@@H](CCCNC(=N)N)C(=O)N[C@@H](CCCNC(=N)N)C(=O)N[C@@H](CCCNC(=N)N)C(=O)N[C@@H](CCCNC(=N)N)C(=O)N[C@@H](CCCNC(=N)N)C(=O)N[C@@H](CCCNC(=N)N)C(N)=O [AG03] (Ac-RGVQIK(Ac)YKPGRRRRRRRR-NH2) | minimal self‐aggregation |  | inhibition of Tau^Δ1‐250 aggregation (Tau^Δ1‐250; ThT end-point after 24 h, 37°C, 20 µM Tau^Δ1‐250, 20 µM peptide (equimolar), 30 mM Tris, 1 mM DTT, 15 µM ThT): ~53%
7 | CC[C@H](C)[C@H](NC(=O)[C@H](CCC(N)=O)NC(=O)[C@@H](NC(=O)CNC(=O)[C@H](CCCNC(=N)N)NC(=O)[C@H](CCCNC(=N)N)NC(=O)[C@H](CCCNC(=N)N)NC(=O)[C@H](CCCNC(=N)N)NC(C)=O)C(C)C)C(=O)N[C@H](C(=O)N[C@@H](Cc1ccc(O)cc1)C(=O)N[C@@H](CCCCN)C(=O)NCC(=O)N[C@@H](CCCNC(=N)N)C(N)=O)C(C)C [AGR502] (Ac-RRRRGVQIVYKGR-NH2) |  | did not affect peptide inhibitory action | 
8 | CC(=O)N[C@@H](CCCNC(=N)N)C(=O)N[C@@H](CCCNC(=N)N)C(=O)N[C@@H](CCCNC(=N)N)C(=O)N[C@@H](CCCNC(=N)N)C(=O)N[C@@H](CCCNC(=N)N)C(=O)N[C@@H](CCCNC(=N)N)C(=O)N[C@@H](CCCNC(=N)N)C(=O)N[C@@H](CCCNC(=N)N)C(=O)N[C@@H](CCCNC(=N)N)C(N)=O [Poly‐arginine, reference compound] |  | no effect on aggregation | 
9 | CC[C@H](C)[C@H](NC(=O)[C@H](CCCCN)NC(=O)[C@@H]1CCCN1C(=O)[C@H](CCC(N)=O)NC(=O)CNC(=O)[C@H](CCCNC(=N)N)NC(C)=O)C(=O)N[C@@H](CCCCNC(C)=O)C(=O)N[C@@H](Cc1ccc(O)cc1)C(=O)N[C@H](C(=O)NCC(=O)N[C@@H](CCCNC(=N)N)C(=O)N[C@@H](CCCNC(=N)N)C(=O)N[C@@H](CCCNC(=N)N)C(=O)N[C@@H](CCCNC(=N)N)C(=O)N[C@@H](CCCNC(=N)N)C(=O)N[C@@H](CCCNC(=N)N)C(=O)N[C@@H](CCCNC(=N)N)C(=O)N[C@@H](CCCNC(=N)N)C(N)=O)C(C)C [Scramble AG03, reference compound] (Ac-RGQPKIK(Ac)YVGRRRRRRRR-NH2) |  | no effect on aggregation | concentrations with peptide‐induced toxicity (decrease in FRET positivity) [2]: above 100 µM; effect on Tau^2N4R aggregation (in words) (Tau^2N4R): did not suppress aggregation
